In BindingDB's records for PubMed 34043359 (China Pharmaceutical University, 2021):

Molecular target: Signal transducer and activator of transcription 3 (Homo sapiens, UniProt P40763)
Test: Binding affinity to recombinant GST tagged STAT3 (unknown origin) assessed as dissociation constant

Sequence of Signal transducer and activator of transcription 3 (P40763 whole entry): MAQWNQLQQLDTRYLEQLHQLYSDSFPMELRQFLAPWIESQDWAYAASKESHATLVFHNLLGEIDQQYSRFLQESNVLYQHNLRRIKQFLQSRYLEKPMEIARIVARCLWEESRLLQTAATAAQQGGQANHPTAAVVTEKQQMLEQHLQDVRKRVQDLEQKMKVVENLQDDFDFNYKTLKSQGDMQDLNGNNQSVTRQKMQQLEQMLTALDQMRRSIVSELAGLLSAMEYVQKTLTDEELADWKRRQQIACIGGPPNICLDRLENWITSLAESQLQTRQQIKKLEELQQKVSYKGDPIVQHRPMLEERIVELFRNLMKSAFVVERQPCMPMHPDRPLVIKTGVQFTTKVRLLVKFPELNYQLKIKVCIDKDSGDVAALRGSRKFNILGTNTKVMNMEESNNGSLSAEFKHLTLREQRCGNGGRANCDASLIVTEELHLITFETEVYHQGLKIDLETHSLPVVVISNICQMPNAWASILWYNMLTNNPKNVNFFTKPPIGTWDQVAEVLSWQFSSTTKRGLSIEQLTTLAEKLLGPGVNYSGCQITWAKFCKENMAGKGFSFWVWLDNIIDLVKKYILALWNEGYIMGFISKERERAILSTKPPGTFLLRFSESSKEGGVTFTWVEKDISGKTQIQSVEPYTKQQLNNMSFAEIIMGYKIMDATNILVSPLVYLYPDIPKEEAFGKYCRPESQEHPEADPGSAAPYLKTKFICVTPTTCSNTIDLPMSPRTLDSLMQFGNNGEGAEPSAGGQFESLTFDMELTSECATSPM

koff: 0.0152 s⁻¹
Structure (SMILES): COc1cc(/C=C/c2ccc(OCCCCCCC(=O)NO)cc2)cc(OC)c1
